Data from the NIST ThermoML archive (doi:10.1021/je3009073).

Experiment: xn = mol fraction of the nth substance listed
Settings: 101 kPa, Liquid; for viscosity: Capillary tube (Ostwald / Ubbelohde) method; for mass density: Pycnometric method

CC(O)C(=O)[O-].[NH3+]CCO (stereo unspecified) [2-hydroxyethylammonium lactate] + O
Settings	mass density [kg/m3]	viscosity [mPa·s]
303.15 K, x2 = 0	1226.1	11341
303.15 K, x2 = 0.116	1225.3	6523.5
303.15 K, x2 = 0.2026	1223	3828.7
303.15 K, x2 = 0.3045	1220	2137.9
303.15 K, x2 = 0.4043	1216.5	1051
303.15 K, x2 = 0.5027	1210.1	498.98
303.15 K, x2 = 0.6023	1203.2	212
303.15 K, x2 = 0.7016	1190.3	74.69
303.15 K, x2 = 0.8022	1167.2	22.28
303.15 K, x2 = 0.9007	1121	5.19
303.15 K, x2 = 0.9501	1076	2.24
308.15 K, x2 = 0	1223.1	6699.9
308.15 K, x2 = 0.116	1222.2	3975.1
308.15 K, x2 = 0.2026	1219.9	2401.1
308.15 K, x2 = 0.3045	1216.9	1372.6
308.15 K, x2 = 0.4043	1213.4	675.18
308.15 K, x2 = 0.5027	1206.9	343.45
308.15 K, x2 = 0.6023	1200.2	156.6
308.15 K, x2 = 0.7016	1187.2	56.32
308.15 K, x2 = 0.8022	1164.2	18.03
308.15 K, x2 = 0.9007	1118.2	4.46
308.15 K, x2 = 0.9501	1073.5	1.97
313.15 K, x2 = 0	1220.4	4144.6
313.15 K, x2 = 0.116	1219.5	2468.4
313.15 K, x2 = 0.2026	1217.1	1570.4
313.15 K, x2 = 0.3045	1214.1	900.49
313.15 K, x2 = 0.4043	1210.6	458.18
313.15 K, x2 = 0.5027	1204.1	243.72
313.15 K, x2 = 0.6023	1197.3	109.99
313.15 K, x2 = 0.7016	1184.3	43.42
313.15 K, x2 = 0.8022	1161.5	14.62
313.15 K, x2 = 0.9007	1115.7	3.83
313.15 K, x2 = 0.9501	1071.2	1.74
318.15 K, x2 = 0	1217.4	2653.8
318.15 K, x2 = 0.116	1216.3	1615.5
318.15 K, x2 = 0.2026	1213.9	1047.4
318.15 K, x2 = 0.3045	1211	601.07
318.15 K, x2 = 0.4043	1207.6	321.24
318.15 K, x2 = 0.5027	1201	174.88
318.15 K, x2 = 0.6023	1194.2	83.91
318.15 K, x2 = 0.7016	1181.2	34.39
318.15 K, x2 = 0.8022	1158.4	11.85
318.15 K, x2 = 0.9007	1112.7	3.35
318.15 K, x2 = 0.9501	1068.4	1.57
323.15 K, x2 = 0	1214.9	1733.6
323.15 K, x2 = 0.116	1213.7	1084.5
323.15 K, x2 = 0.2026	1211.3	717.58
323.15 K, x2 = 0.3045	1208.3	418.69
323.15 K, x2 = 0.4043	1204.9	232.51
323.15 K, x2 = 0.5027	1198.1	–
323.15 K, x2 = 0.6023	1191.5	64.89
323.15 K, x2 = 0.7016	1178.4	27.88
323.15 K, x2 = 0.8022	1155.7	9.96
323.15 K, x2 = 0.9007	1110.1	2.94
323.15 K, x2 = 0.9501	1065.8	1.41
328.15 K, x2 = 0	1212	1182.5
328.15 K, x2 = 0.116	1210.6	742.12
328.15 K, x2 = 0.2026	1208.1	478.37
328.15 K, x2 = 0.3045	1205.3	299.81
328.15 K, x2 = 0.4043	1201.7	173.38
328.15 K, x2 = 0.5027	1195.1	99.46
328.15 K, x2 = 0.6023	1188.4	50.52
328.15 K, x2 = 0.7016	1175.3	22.65
328.15 K, x2 = 0.8022	1152.6	8.43
328.15 K, x2 = 0.9007	1107	2.61
328.15 K, x2 = 0.9501	1063	1.25
